The assay has as its system UPF1. Kind of assay: Western blot of UPF1 CP generation in COS-7 cells. Particulars: COS-7, 2 μM staurosporine or 2 μg/mL doxorubicin. The class given is cell-based, African green monkey. On the procedure: FIG. 10b is essentially as in a, but using lysates of HEK293T cells exposed to 1 μM staurosporine. FIG. 10c is essentially as in a, but using lysates of human Daudi B lymphoblasts exposed to 40 ng/mL TNF-α or 2 μg/mL doxorubicin. FIG. 10d is essentially as in a, but using lysates of human Jurkat T cells exposed to 1 μM staurosporine. FIG. 10e is essentially as in a, but using lysates of canine MDCK cells exposed to 2 μM staurosporine. FIG. 10f is essentially as in a, but using lysates of bovine MDBK cells exposed to 2 μM staurosporine. FIG. 10g is essentially as in a, but using lysates of Chinese Hamster Ovary (CHO) cells exposed to 2 μM staurosporine. FIG. 10h is essentially as in a, but using lysates of African green monkey COS-7 cells exposed to 2 μM staurosporine or 2 μg/mL doxorubicin. At least two apoptotic inducers were used for each cell line, and at least two cell lines were tested with each apoptotic inducer.
Cells were lysed, and protein was isolated using hypotonic buffer that consists of 10 mM Tris-C1, pH 7.4, 10 mM NaCl, 2 mM EDTA, 0.5% Triton X-100, 2 mM benzamidine, 1 mM PMSF, NEM (50 μg/mL), 1× phosphatase inhibitor cocktail (Roche), and 1× protease inhibitor cocktail (Roche; Basel, Switzerland). […] Immunoreactivity was assessed using SuperSignal West Pico or Femto (Pierce Biotechnology; Waltham, Mass.).
In general terms: In western blotting, separated proteins are transferred to a membrane and probed.

Structures are written as SMILES.

These results are taken from patent publication US20160279110A1, “COMPOSITIONS AND METHODS FOR TREATING CANCER” (UNIVERSITY OF ROCHESTER, priority 2015, published 2016).

For `COc1cccc2c1C(=O)c1c(O)c3c(c(O)c1C2=O)C[C@@](O)(C(=O)CO)C[C@@H]3O[C@H]1C[C@H](N)[C@H](O)[C@H](C)O1` [doxorubicin, Doxorubicin], the “UPF1 CP generation” value is listed as “yielded a UPF1 CP”.
